Series [1] relates to human acute myelogenous leukemia cell line HL-60. Briefly: Ability to induce differentiation of HL-60 cells (oxygen radical production after phorbol ester stimulation, WST-1). In kind it is cell-based. To be noted: 72 hours incubation, then WST-1 and phorbol 12,13-didecanoate for 4 hours, absorbance at 450, read-out: EC50 (50%-maximal effect concentration), induction of HL-60 differentiation. An excerpt: It has been known that human acute myelogenous leukemia cell line HL-60 is differentiated into a neutrophil-like cell by active form of vitamin D. Thus, the cells after the differentiation begin to express a surface marker such as CD11 and CD32 and, at the same time, they produce oxygen radical by stimulation with a phorbol ester. In this test, the above-mentioned property was utilized to assess an ability to induce the differentiation of HL-60 cell of the compounds of the present invention mentioned in the Examples and maxacalcitol using as an indicator the amount of oxygen radical produced by stimulation with a phorbol ester whereby a vitamin D3 activity was compared and investigated. When commercially available reagents and kits were used, they were used according to the indications attached thereto.
(Procedure) HL-60 cells (supplied from ATCC) were seeded on a 96-well plate at 5×10^3 cells/100 μL/well and a test compound in two-fold dilution series from 10^−7 M was added to the second to the twelfth rows (maximum concentration: the second row). The first row was used for blank. Maxacalcitol was added to lines A and B and the compound of the present invention was added to lines C and D. After incubation for 72 hours under a moisturized condition in the presence of 5% CO2 at 37° C. using a CO2 incubator, 101 μL of PBS containing 50 mM WST-1 (manufactured by Takara Bio) and 10 μM phorbol 12,13-didecanoate (manufactured by Sigma) were added to each well followed by incubating for 4 hours more. Absorbance (reference wavelength: 655 nM) at 450 nM of a WST-1 formazan dye generated by conversion from WST-1 by oxygen radical produced from the differentiated HL-60 cells was measured by a Benchmark microplate reader (manufactured by BioRad). An absorbance meter control software MPM 3 (manufactured by BioRad) was used and, from a concentration-absorbance curve, the 50%-maximal effect concentration (hereinafter, referred to as “EC50”) of each was determined by a logistic curve regression.

The nature of series [2]: Metabolic rate in human liver microsome. It is filed as in vitro ADME. The conditions noted are these: pooled human liver microsome, 1 mg/mL protein, NADPH production system, pH 7.4, 37° C., HPLC. As to the method:
Metabolic rates of the compounds of the present invention mentioned in Examples and maxacalcitol in human liver microsome were compared and investigated.
As to the pooled human liver microsome (HHM-0323), those manufactured by Tissue Transformation Technologies were used. A 0.25M potassium phosphate buffer (pH 7.4) (200 μL), 5 μL of a 250 μM solution of each compound to be tested in DMSO, 50 μL of an NADPH production system (where 20 mg of (β-NADP^+, 70 mg of glucose-6-phosphate, 40 units of glucose-6-phosphate dehydrogenase and 20 mg of magnesium chloride were dissolved in 1 mL of distilled water) and 220 μL of distilled water were added to a microtube and the mixture was subjected to a preincubation for 5 minutes at 37° C. Reaction was started by addition of 25 μL of human liver microsome (final concentration of protein: 1 mg/mL). Incubation was performed for 2, 10, 30 or 60 minutes and the reaction was stopped by addition of 500 μL of acetonitrile. After centrifugation at 13,000 rpm for 5 minutes, each test compound in the supernatant (25 μL) was measured by an HPLC under the following conditions.
Inertsil ODS-3 (4.6×150 mm; GL Science) was used as a column. With regard to mobile phase, a solution A (acetonitrile/0.1% aqueous solution of ammonium acetate=10/90) and a solution B (acetonitrile/0.1% aqueous solution of ammonium acetate=90/10) were used under the linear gradient conditions mentioned in Table 4. Column temperature, flow rate and wavelength for detection were set at 40° C., 1.0 mL/min. and UV 270 nm, respectively.
From the result of measurement by the above-mentioned HPLC, metabolic rates of the test compounds were calculated.

A short description of series [3]: Action to raise calcium concentration in serum, repeated percutaneous administration. It is filed as in vivo, rat. The conditions noted are these: male SD rats, percutaneous 33 μg/200 μL/kg/day once daily for seven days, blood 24 hours after final administration. How it is done:
A solution of the compound of the present invention mentioned in Example 1 or maxacalcitol in ethanol containing 0.3% of DMSO was repeatedly subjected to a percutaneous administration (33 μg/200 μL/kg/day) for seven days once daily onto the back of male rats (7 weeks of age) of the SD strain. An ethanol solution containing 0.3% of DMSO was administered to a control group. At 24 hours after the final administration, blood was collected and calcium concentration in serum was measured.

Series [4] can be described thus: Action to raise the urinary excretion of calcium (1), repeated percutaneous administration. In kind it is in vivo, rat. The conditions noted are these: male SD rats, percutaneous 0.33, 3.3 and 33 μg/kg/day once daily for three days, urine collected every 24 hours, compared with control. How it is done:
Open triangles show a control; open squares show the case where 0.33 μg/kg of the compound of Example 1 was administered; open rhombuses show the case where 3.3 μg/kg of the compound of Example 1 was administered; open circles show the case where 33 μg/kg of the compound of Example 1 was administered; black squares show the case where 0.33 μg/kg of maxacalcitol was administered; black rhombuses show the case where 3.3 μg/kg of maxacalcitol was administered; and black circles show the case where 33 μg/kg of maxacalcitol was administered.
A solution of the compound of the present invention mentioned in Example 1 or maxacalcitol in ethanol containing 0.3% of DMSO was repeatedly subjected to a percutaneous administration (0.33, 3.3 and 33 μg/200 μl/kg/day) for three days once daily onto the back of male rats (7 weeks of age) of the SD strain. An ethanol solution containing 0.3% of DMSO was administered to a control group. Calcium concentration in urine collected every 24 hours after administration on each day was measured and multiplied by the amount of urine to calculate the urinary excretion of calcium.

Series [5] in a line: Action to raise the urinary excretion of calcium (2), intravenous administration. In kind it is in vivo, rat. To be noted: male SD rats, intravenous 22.4 nmol/kg; for Urinary excretion of calcium: urine collected during 24 hours after administration; for Ratio of urinary excretion of calcium (to Control): urine collected during 24 hours, relative to control group. How it is done: The compound of the present invention mentioned in Examples 3 or 8, or maxacalcitol (22.4 nmol/kg) was subjected to an intravenous administration to male rats (7 weeks of age) of the SD strain. A physiological saline containing 0.1% of Triton X 100 was administered to a control group. Calcium concentration in urine collected during 24 hours after the administration was measured and urinary excretion of calcium ([calcium concentration in urine]×[amount of urine]) and ratio of urinary excretion of calcium based on the control group ([calcium amount in urine upon administration of the compound to be tested]/[calcium amount in urine in the control group]) were calculated.

As for `C=C1/C(=C\C=C2/CCC[C@]3(C)[C@@H]([C@H](C)OC(=O)CCC(C)(C)O)CC[C@@H]23)C[C@@H](O)C[C@@H]1O` [Compound of Example 1, (1S,3R,20S)-20-(4-Hydroxy-4-methyl-pentanoyloxy)-9,10-secopregna-5Z,7E,10(19)-trien-1,3-diol], the EC50 in series [1] is 2 nM. The “Metabolic Rate” value in series [2] is 78 pmol/min/mg. For the same molecule, the “Calcium Concentration in Serum” value in series [3] is given as 11.8 mg/dL. Further, the “Urinary excretion of calcium (FIG. 1)” value in series [4] is given as “no significant increase in urinary excretion of calcium”.
For `C=C1C(=CC=C2CCCC3(C)C2CCC3C(C)OC(=O)CCCC(C)(C)O)CC(O)CC1O` [Compound of Example 3, (1S,3R,20S)-20-(5-Hydroxy-5-methylhexanoyloxy)-9,10-secopregna-5Z,7E,10(19)-trien-1,3-diol], in series [5], the “Urinary excretion of calcium” value amounted to 0.66 mg and the “Ratio of urinary excretion of calcium (to Control)” value was found to be 93%. Moreover, the EC50 in series [1] came to 2.6 nM. The “Metabolic Rate” value in series [2] was determined as 22 pmol/min/mg.
Regarding `C=C1C(=CC=C2CCCC3(C)C2CCC3C(C)OC(=O)CC(C)(O)C(F)(F)F)CC(O)CC1O` [Compound of Example 4, (1S,3R,20S)-20-(4,4,4-Trifluoro-3-hydroxy-3-methylbutanoyloxy)-9,10-secopregna-5Z,7E,10(19)-trien-1,3-diol], the EC50 in series [1] came to 0.21 nM.
Same read-out and setting: the same measure for `C=C1C(=CC=C2CCCC3(C)C2CCC3C(C)OC(=O)CC(O)C(C)C)CC(O)CC1O` [Compound of Example 5, (1S,3R,20S)-20-(3-Hydroxy-4-methylpentanoyloxy)-9,10-secopregna-5Z,7E,10(19)-trien-1,3-diol]: 1.1 nM; for `C=C1C(=CC=C2CCCC3(C)C2CCC3C(C)OC(=O)CC(O)(C(F)(F)F)C(F)(F)F)CC(O)CC1O` [Compound of Example 7, (1S,3R,20S)-20-[4,4,4-Trifluoro-3-hydroxy-3-(trifluoromethyl)butanoyloxy]-9,10-secopregna-5Z,7E,10(19)-trien-1,3-diol]: 0.44 nM.
Turning to `C=C1/C(=C\C=C2/CCC[C@]3(C)[C@@H]([C@H](C)OC(=O)/C=C/C(C)(C)O)CC[C@@H]23)C[C@@H](O)C[C@@H]1O` [Compound of Example 8, (1S,3R,20S)-20-[(2E)-4-Hydroxy-4-methylpent-2-enoyloxy]-9,10-secopregna-5Z,7E,10(19)-trien-1,3-diol], in series [5], the “Urinary excretion of calcium” value worked out at 0.89 mg and the “Ratio of urinary excretion of calcium (to Control)” value stood at 125%. The EC50 in series [1] amounted to 3.1 nM. Further, in series [2], the “Metabolic Rate” value is recorded as 38 pmol/min/mg.
For `C=C1C(=CC=C2CCCC3(C)C2CCC3C(C)OC(=O)C=CC(O)(CC)CC)CC(O)CC1O` [Compound of Example 10, (1S,3R,20S)-20-[(2E)-4-Ethyl-4-hydroxyhex-2-enoyloxy]-9,10-secopregna-5Z,7E,10(19)-trien-1,3-diol], the EC50 in series [1] is 1.2 nM. Further, the “Metabolic Rate” value in series [2] is 58 pmol/min/mg.
For `C=C1C(=CC=C2CCCC3(C)C2CCC3C(C)OC(=O)CC(CC)C(C)O)CC(O)CC1O` [Compound of Example 12, (1S,3R,20S)-20-(3-Ethyl-4-hydroxypentanoyloxy)-9,10-secopregna-5Z,7E,10(19)-trien-1,3-diol], the EC50 in series [1] was 4.2 nM.
As for `C=C1C(=CC=C2CCCC3(C)C2CCC3C(C)OC(=O)CCC(O)(CC)CC)CC(O)CC1O` [Compound of Example 13, (1S,3R,20S)-20-(4-Ethyl-4-hydroxyhexanoyloxy)-9,10-secopregna-5Z,7E,10(19)-trien-1,3-diol], the EC50 in series [1] amounted to 2.3 nM. Further, in series [2], the “Metabolic Rate” value was found to be 38 pmol/min/mg.
As to `C=C1C(=CC=C2CCCC3(C)C2CCC3C(C)OC(=O)CN(C)CC(C)(C)O)CC(O)CC1O` [Compound of Example 19, (1S,3R,20S)-20-[N-(2-Hydroxy-2-methylpropyl)-N-methyl-2-aminoacetyloxy]-9,10-secopregna-5Z,7E,10(19)-trien-1,3-diol], the EC50 in series [1] came out at 4 nM.
Consider `C=C1C(=CC=C2CCCC3(C)C2CCC3C(C)OC(=O)CCC2(O)CCCC2)CC(O)CC1O` [Compound of Example 20, (1S,3R,20S)-20-[3-(1-Hydroxycyclopentyl)propanoyloxy]-9,10-secopregna-5Z,7E,10(19)-trien-1,3-diol], for which, in series [1], the EC50 came to 1.7 nM. For the same molecule, in series [2], the “Metabolic Rate” value came out at 39 pmol/min/mg.
In the case of `C=C1C(=CC=C2CCCC3(C)C2CCC3C(C)OC(=O)CC(=O)C(C)(C)O)CC(O)CC1O` [Compound of Example 27, (1S,3R,20S)-20-(4-Hydroxy-4-methyl-3-oxo-pentanoyloxy)-9,10-secopregna-5Z,7E,10(19)-trien-1,3-diol], in series [1], the EC50 was found to be 3 nM.
`C=C1C(=CC=C2CCCC3(C)C2CCC3C(C)OC(=O)CC(=O)C(O)(CC)CC)CC(O)CC1O` [Compound of Example 28, (1S,3R,20S)-20-(4-Ethyl-4-hydroxy-3-oxo-hexanoyloxy)-9,10-secopregna-5Z,7E,10(19)-trien-1,3-diol]: in series [1], the EC50 turned out to be 2.5 nM.
For the molecule “(1S,3R,20S)-20-(5-Hydroxy-5-methylheptanoyloxy)-9,10-secopregna-5Z,7E,10(19)-trien-1,3-diol [Compound of Example 11]”, the EC50 in series [1] was found to be 4.3 nM. Further, the “Metabolic Rate” value in series [2] was found to be 23 pmol/min/mg.

The values are drawn from patent US20100130454A1, “9,10-SECOPREGNANE DERIVATIVES AND MEDICINE” (NIPPON SHINYAKU CO., LTD., priority 2004, published 2010).
